Experimental data taken from PubChem BioAssay (NCI).
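Following 48 hours of exposure in 96-well plates, responses at five concentrations were used to interpolate endpoints linearly. TGI marks complete inhibition of growth.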

Assays:
Assay in all cases: NCI tumour cell line growth inhibition, 48 h
SK-MEL-2 melanoma = system: SK-MEL-2 melanoma
SF-268 CNS = system: SF-268 CNS
TK-10 renal = system: TK-10 renal
SK-OV-3 ovarian = system: SK-OV-3 ovarian
LXFL 529 NSCLC = system: LXFL 529 NSCLC
RXF-631 renal = system: RXF-631 renal
NCI-H522 lung = system: NCI-H522 lung
U251 CNS = system: U251 CNS
SK-MEL-5 melanoma = system: SK-MEL-5 melanoma
MALME-3M melanoma = system: MALME-3M melanoma
OVCAR-5 ovarian = system: OVCAR-5 ovarian
LOX IMVI melanoma = system: LOX IMVI melanoma
SNB-19 CNS = system: SNB-19 CNS
SNB-78 CNS = system: SNB-78 CNS
CCRF-CEM leukemia = system: CCRF-CEM leukemia
A549 NSCLC = system: A549 NSCLC
CAKI-1 renal = system: CAKI-1 renal
DLD-1 colon = system: DLD-1 colon
SR leukemia = system: SR leukemia
M19-MEL melanoma = system: M19-MEL melanoma
NCI-H23 lung = system: NCI-H23 lung
ACHN renal = system: ACHN renal
HOP-92 NSCLC = system: HOP-92 NSCLC
UO-31 renal = system: UO-31 renal
SF-539 CNS = system: SF-539 CNS
HOP-18 NSCLC = system: HOP-18 NSCLC
SN12C renal = system: SN12C renal
OVCAR-4 ovarian = system: OVCAR-4 ovarian
OVCAR-3 ovarian = system: OVCAR-3 ovarian
IGROV1 ovarian = system: IGROV1 ovarian
NCI-H460 lung = system: NCI-H460 lung
SW-620 colon = system: SW-620 colon
DMS 114 small cell lung = system: DMS 114 small cell lung
786-0 renal = system: 786-0 renal
M14 melanoma = system: M14 melanoma
RPMI-8226 leukemia = system: RPMI-8226 leukemia
MOLT-4 leukemia = system: MOLT-4 leukemia
HCT-116 colon = system: HCT-116 colon
OVCAR-8 ovarian = system: OVCAR-8 ovarian
NCI-H226 lung = system: NCI-H226 lung
SF-295 CNS = system: SF-295 CNS
SK-MEL-28 melanoma = system: SK-MEL-28 melanoma
KM12 colon = system: KM12 colon
A498 renal = system: A498 renal
HOP-62 NSCLC = system: HOP-62 NSCLC
HT29 colon = system: HT29 colon
SNB-75 CNS = system: SNB-75 CNS
UACC-257 melanoma = system: UACC-257 melanoma
KM20L2 colon = system: KM20L2 colon
UACC-62 melanoma = system: UACC-62 melanoma
COLO 205 colon = system: COLO 205 colon
HCT-15 colon = system: HCT-15 colon
HCC-2998 colon = system: HCC-2998 colon
K-562 leukemia = system: K-562 leukemia
XF 498 CNS = system: XF 498 CNS
EKVX NSCLC = system: EKVX NSCLC
DMS 273 small cell lung = system: DMS 273 small cell lung

Compound O=C(NC1CCCCC1)c1c(O)[nH]c(=S)[nH]c1=O has a TGI (SK-MEL-2 melanoma) greater than 100 µM, a TGI (SF-268 CNS) greater than 100 µM and a TGI (TK-10 renal) greater than 100 µM. The TGI (SK-OV-3 ovarian) was greater than 100 µM, the TGI (LXFL 529 NSCLC) was greater than 100 µM and the TGI (RXF-631 renal) was greater than 100 µM. It also gave a TGI (NCI-H522 lung) greater than 100 µM, a TGI (U251 CNS) greater than 100 µM and a TGI (SK-MEL-5 melanoma) greater than 100 µM. The TGI (MALME-3M melanoma) was greater than 100 µM, the TGI (OVCAR-5 ovarian) was greater than 100 µM and the TGI (LOX IMVI melanoma) was greater than 100 µM. For the same compound, the TGI (SNB-19 CNS) was greater than 100 µM, the TGI (SNB-78 CNS) was greater than 100 µM and the TGI (CCRF-CEM leukemia) was greater than 100 µM. The TGI (A549 NSCLC) was greater than 100 µM, the TGI (CAKI-1 renal) was greater than 100 µM and the TGI (DLD-1 colon) was greater than 100 µM. It also gave a TGI (SR leukemia) greater than 100 µM, a TGI (M19-MEL melanoma) greater than 100 µM and a TGI (NCI-H23 lung) greater than 100 µM. For the same compound, the TGI (ACHN renal) was greater than 100 µM, the TGI (HOP-92 NSCLC) was greater than 100 µM and the TGI (UO-31 renal) was greater than 100 µM. The TGI (SF-539 CNS) was greater than 100 µM, the TGI (HOP-18 NSCLC) was greater than 100 µM and the TGI (SN12C renal) was greater than 100 µM. For the same compound, the TGI (OVCAR-4 ovarian) was greater than 100 µM, the TGI (OVCAR-3 ovarian) was greater than 100 µM and the TGI (IGROV1 ovarian) was greater than 100 µM. The TGI (NCI-H460 lung) was greater than 100 µM, the TGI (SW-620 colon) was greater than 100 µM and the TGI (DMS 114 small cell lung) was greater than 100 µM. For the same compound, the TGI (786-0 renal) was greater than 100 µM, the TGI (M14 melanoma) was greater than 100 µM and the TGI (RPMI-8226 leukemia) was greater than 100 µM. For the same compound, the TGI (MOLT-4 leukemia) was greater than 100 µM, the TGI (HCT-116 colon) was greater than 100 µM and the TGI (OVCAR-8 ovarian) was greater than 100 µM. It also gave a TGI (NCI-H226 lung) greater than 100 µM, a TGI (SF-295 CNS) greater than 100 µM and a TGI (SK-MEL-28 melanoma) greater than 100 µM. For the same compound, the TGI (KM12 colon) was greater than 100 µM, the TGI (A498 renal) was greater than 100 µM and the TGI (HOP-62 NSCLC) was greater than 100 µM. For the same compound, the TGI (HT29 colon) was greater than 100 µM, the TGI (SNB-75 CNS) was greater than 100 µM and the TGI (UACC-257 melanoma) was greater than 100 µM. It also gave a TGI (KM20L2 colon) greater than 100 µM, a TGI (UACC-62 melanoma) greater than 100 µM and a TGI (COLO 205 colon) greater than 100 µM. It also gave a TGI (HCT-15 colon) greater than 100 µM.
Work on C=C1C(=O)O[C@@H]2C[C@]3(C)[C@@H](C[C@H]12)[C@](C)(O)CC[C@@H]3O yielded a TGI (SK-MEL-2 melanoma) greater than 100 µM, a TGI (HCC-2998 colon) greater than 100 µM and a TGI (K-562 leukemia) greater than 100 µM. It also gave a TGI (SF-268 CNS) greater than 100 µM, a TGI (TK-10 renal) of 76.6 µM and a TGI (SK-OV-3 ovarian) greater than 100 µM. The TGI (LXFL 529 NSCLC) was greater than 100 µM, the TGI (RXF-631 renal) was greater than 100 µM and the TGI (NCI-H522 lung) was greater than 100 µM. For the same compound, the TGI (U251 CNS) was greater than 100 µM, the TGI (SK-MEL-5 melanoma) was greater than 100 µM and the TGI (MALME-3M melanoma) was greater than 100 µM. For the same compound, the TGI (OVCAR-5 ovarian) was greater than 100 µM, the TGI (LOX IMVI melanoma) was greater than 100 µM and the TGI (SNB-19 CNS) was greater than 100 µM. The TGI (SNB-78 CNS) was greater than 100 µM, the TGI (CCRF-CEM leukemia) was greater than 100 µM and the TGI (A549 NSCLC) was greater than 100 µM. The TGI (CAKI-1 renal) was greater than 100 µM, the TGI (DLD-1 colon) was greater than 100 µM and the TGI (XF 498 CNS) was greater than 100 µM. The TGI (M19-MEL melanoma) was greater than 100 µM, the TGI (NCI-H23 lung) was greater than 100 µM and the TGI (ACHN renal) was greater than 100 µM. It also gave a TGI (HOP-92 NSCLC) greater than 100 µM, a TGI (UO-31 renal) greater than 100 µM and a TGI (SF-539 CNS) greater than 100 µM. The TGI (EKVX NSCLC) was greater than 100 µM, the TGI (SN12C renal) was greater than 100 µM and the TGI (OVCAR-4 ovarian) was greater than 100 µM. The TGI (OVCAR-3 ovarian) was greater than 100 µM, the TGI (IGROV1 ovarian) was greater than 100 µM and the TGI (NCI-H460 lung) was 68.9 µM. The TGI (SW-620 colon) was greater than 100 µM, the TGI (DMS 114 small cell lung) was greater than 100 µM and the TGI (786-0 renal) was greater than 100 µM. For the same compound, the TGI (M14 melanoma) was greater than 100 µM, the TGI (RPMI-8226 leukemia) was greater than 100 µM and the TGI (MOLT-4 leukemia) was greater than 100 µM. It also gave a TGI (HCT-116 colon) greater than 100 µM, a TGI (OVCAR-8 ovarian) greater than 100 µM and a TGI (NCI-H226 lung) greater than 100 µM. For the same compound, the TGI (SF-295 CNS) was greater than 100 µM, the TGI (SK-MEL-28 melanoma) was greater than 100 µM and the TGI (KM12 colon) was greater than 100 µM. For the same compound, the TGI (DMS 273 small cell lung) was greater than 100 µM, the TGI (HOP-62 NSCLC) was greater than 100 µM and the TGI (HT29 colon) was greater than 100 µM. For the same compound, the TGI (SNB-75 CNS) was greater than 100 µM, the TGI (KM20L2 colon) was greater than 100 µM and the TGI (UACC-62 melanoma) was greater than 100 µM. It also gave a TGI (COLO 205 colon) greater than 100 µM and a TGI (HCT-15 colon) greater than 100 µM.
